Assay results from patent US9669031B2, “MNK inhibitors and methods related thereto” (eFFECTOR Therapeutics, Inc., priority 2014, dated 2017).
Counter-ions that a name gives are not always drawn. Like-named read-outs stand apart in the source and are kept apart here.

How the values were obtained:
[1] = Pharmacokinetics in Balb/c mice, single intravenous bolus administration; assay type: in vivo; details: intravenous bolus 1 mg/kg, gender F; for AUC(0-inf) / half-life / Vd: female, mouse, plasma; for AUC(0-inf): read-out: AUCINF_obs; for half-life: read-out: T½ (converted); for Vd: read-out: Vss
in vivo = details: Balb/c, mouse, po, 10 mg/kg; for AUC(0-t): AUClast; for half-life: T½
[2] = Balb/c, mouse, in vivo, po, 10 mg/kg
Mnk1 = Mnk1 (Homo sapiens (Human), UniProt Q9BUB5); test: biochemical
Chain of Mnk1 (Q9BUB5 whole entry): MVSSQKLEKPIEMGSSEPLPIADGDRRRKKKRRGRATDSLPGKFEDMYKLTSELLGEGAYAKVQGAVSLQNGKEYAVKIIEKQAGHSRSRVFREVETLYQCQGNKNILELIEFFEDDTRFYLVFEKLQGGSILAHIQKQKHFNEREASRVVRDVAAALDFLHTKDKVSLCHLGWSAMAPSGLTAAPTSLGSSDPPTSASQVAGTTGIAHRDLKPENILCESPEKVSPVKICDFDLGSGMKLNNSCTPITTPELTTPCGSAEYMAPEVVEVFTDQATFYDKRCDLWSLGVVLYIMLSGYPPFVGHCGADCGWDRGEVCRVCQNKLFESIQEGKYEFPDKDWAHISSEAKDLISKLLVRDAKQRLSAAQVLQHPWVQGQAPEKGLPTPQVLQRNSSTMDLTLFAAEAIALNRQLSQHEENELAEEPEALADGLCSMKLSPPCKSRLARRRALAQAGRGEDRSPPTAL

[3] = formulation 10DMI/15EtOH/35PG/40D5W
[4] = formulation 10DMA/15EtOH/35PEG300/40D5W
[5] = formulation 10DMI/15EtOH/35PG/40Saline

Structure (SMILES) | AUC(0-t) (in vivo; female) [ng·h/mL] | Cmax (in vivo; female) [ng/mL] | Tmax (in vivo; female) [h] | half-life (in vivo; female) [h] | Tlast ([2]; female) [h] | IC50 (Mnk1) [nM] | further results
CC1(c2cc(F)cc(Cl)c2)NC(=O)c2ccc(Nc3ccncn3)c(=O)n21 (stereo not shown) [Cpd. No. 28, 3-(3-chloro-5-fluorophenyl)-3-methyl-6-(pyrimidin-4-ylamino)-2,3-dihydroimidazo[1,5-a]pyridine-1,5-dione] |  |  |  |  |  | 10 to 100 | 
O=c1c(Nc2ccncn2)ccc2n1C1(CCCCC1)NC2=S [Cpd. No. 131, 6′-(pyrimidin-4-ylamino)-1′-thioxo-1′,2′-dihydro-5′H-spiro[cyclohexane-1,3′-imidazo[1,5-a]pyridin]-5′-one] |  |  |  |  |  | 10 to 100 | 
CC1(c2cc(Cl)cc(Cl)c2)NC(=O)c2ccc(Nc3ccncn3)c(=O)n21 (stereo not shown) [Cpd. No. 33, 3-(3,5-dichlorophenyl)-3-methyl-6-(pyrimidin-4-ylamino)-2,3-dihydroimidazo[1,5-a]pyridine-1,5-dione] |  |  |  |  |  | 10 to 100 | 
CC1(C)NC(=O)c2c(Cl)cc(Nc3ncnc4cnccc34)c(=O)n21 [Cpd. No. 165, 8-chloro-3,3-dimethyl-6-(pyrido[3,4-d]pyrimidin-4-ylamino)-2,3-dihydroimidazo[1,5-a]pyridine-1,5-dione] |  |  |  |  |  | 10 to 100 | 
Cc1cc(Nc2cc(N)ncn2)c(=O)n2c1C(=O)NC2(C)c1cccc(Cl)c1 (stereo not shown) [Cpd. No. 92, 6-[(6-aminopyrimidin-4-yl)amino]-3-(3-chlorophenyl)-3,8-dimethyl-2H-imidazo[1,5-a]pyridine-1,5-dione] |  |  |  |  |  | < 10 | 
Cc1cc(Nc2cc(N)ncn2)c(=O)n2c1C(=O)NC21CCC(F)(F)CC1 [Cpd. No. 103, 6-[(6-aminopyrimidin-4-yl)amino]-4′,4′-difluoro-8-methyl-spiro[2H-imidazo[1,5-a]pyridine-3,1′-cyclohexane]-1,5-dione hydrochloride] |  |  |  |  |  | < 10 | 
O=C1NC2(CCC(F)(F)CC2)n2c1c(Cl)cc(Nc1cc(NC(=O)C3CC3)ncn1)c2=O [Cpd. No. 50, N-[6-[(8-chloro-4′,4′-difluoro-1,5-dioxo-spiro[2H-imidazo[1,5-a]pyridine-3,1′-cyclohexane]-6-yl)amino]pyrimidin-4-yl]cyclopropanecarboxamide] |  |  | 4 |  | 24 |  | AUC(0-inf) [1, 5]: 887 ng·h/mL; half-life [1, 5]: 2.47 h; Vd [1, 5]: 3.18 L/kg; Cl_obs [1, 5]: 18.8 mL/min/kg
Nc1cc(Nc2cc(Cl)c3n(c2=O)C2(CCc4ccc(Cl)cc42)NC3=O)ncn1 (stereo not shown) [Cpd. No. 111, 6-[(6-aminopyrimidin-4-yl)amino]-6′,8-dichloro-spiro[2H-imidazo[1,5-a]pyridine-3,1′-indane]-1,5-dione hydrochloride] |  |  |  |  |  | < 10 | 
CC1(C(F)(F)F)NC(=O)c2c(Cl)cc(Nc3ccncn3)c(=O)n21 (stereo not shown) [Cpd. No. 35, 8-chloro-3-methyl-6-(pyrimidin-4-ylamino)-3-(trifluoromethyl)-2H-imidazo[1,5-a]pyridine-1,5-dione] | 71300 | 6930 | 2 | 3.46 | 24 |  | 
O=C1NC2(CCNC2)n2c1ccc(Nc1ccncn1)c2=O (stereo not shown) [Cpd. No. 26, 6-(pyrimidin-4-ylamino)-1H-spiro[imidazo[1,5-a]pyridine-3,3′-pyrrolidine]-1,5(2H)-dione] |  |  |  |  |  | 10 to 100 | 
CC1(C2CCCC2)NC(=O)c2ccc(Nc3ccncn3)c(=O)n21 (stereo not shown) [Cpd. No. 9, 3-cyclopentyl-3-methyl-6-(pyrimidin-4-ylamino)-2,3-dihydroimidazo[1,5-a]pyridine-1,5-dione] |  |  |  |  |  |  | AUC(0-t) (in vivo; male): 4830 ng·h/mL; Cmax (in vivo; male): 5050 ng/mL; Tmax (in vivo; male): 0.5 h; half-life (in vivo; male): 0.831 h; Tlast ([2]; male): 8 h

Further lines, with some results ahead:

AUC(0-t) (in vivo; female) [ng·h/mL] | Cmax (in vivo; female) [ng/mL] | Tmax (in vivo; female) [h] | half-life (in vivo; female) [h] | Tlast ([2]; female) [h] | Structure (SMILES) | IC50 (Mnk1) [nM] | further results
1470 | 983 | 0.25 | 2 | 8 | Nc1cc(Nc2cc(Cl)c3n(c2=O)C2(CCCCC2)NC3=O)ncn1 [Cpd. No. 70, 6′-((6-aminopyrimidin-4-yl)amino)-8′-chloro-2′H-spiro[cyclohexane-1,3′-imidazo[1,5-a]pyridine]-1′,5′-dione] |  | AUC(0-inf) [1, 3]: 333 ng·h/mL; half-life [1, 3]: 0.561 h; Vd [1, 3]: 1.8 L/kg; Cl_obs [1, 3]: 50.1 mL/min/kg; AUClast ([2]; female): 2010 ng·h/mL; T½ ([2]; female): 3.74 h
2760 | 950 | 1 | 5.3 | 8 | Cc1cc(Nc2cc(N)ncn2)c(=O)n2c1C(=O)NC21CCCCC1 [Cpd. No. 107, 6′-((6-aminopyrimidin-4-yl)amino)-8′-methyl-2′H-spiro[cyclohexane-1,3′-imidazo[1,5-a]pyridine]-1′,5′-dione] |  | AUC(0-inf) [1, 4]: 502 ng·h/mL; half-life [1, 4]: 2.91 h; Vd [1, 4]: 3.21 L/kg; Cl_obs [1, 4]: 33.2 mL/min/kg
4180 | 1200 | 0.3 | 3.1 | 8 | Cc1cc(Nc2cc(N)ncn2)c(=O)n2c1C(=O)NC21CCCC1.Cl [Cpd. No. 98, 6-[(6-aminopyrimidin-4-yl)amino]-8-methyl-spiro[2H-imidazo[1,5-a]pyridine-3,1′-cyclopentane]-1,5-dione hydrochloride] |  | AUC(0-inf) [1, 4]: 358 ng·h/mL; half-life [1, 4]: 1.79 h; Vd [1, 4]: 3.56 L/kg; Cl_obs [1, 4]: 46.6 mL/min/kg
6420 | 1720 | 0.5 | 1.87 | 8 | CC1(C)NC(=O)c2ccc(Nc3cc(NC(=O)C4CC4)ncn3)c(=O)n21 [Cpd. No. 10, N-(6-((3,3-dimethyl-1,5-dioxo-1,2,3,5-tetrahydroimidazo[1,5-a]pyridin-6-yl)amino)pyrimidin-4-yl)cyclopropanecarboxamide] |  | AUC(0-inf) [1, 5]: 396 ng·h/mL; half-life [1, 5]: 2.8 h; Vd [1, 5]: 5.45 L/kg; Cl_obs [1, 5]: 42.1 mL/min/kg; AUC(0-t) (in vivo; male): 8750 ng·h/mL; Cmax (in vivo; male): 2160 ng/mL; Tmax (in vivo; male): 1 h; half-life (in vivo; male): 4.22 h; Tlast ([2]; male): 24 h
2040 | 810 | 0.5 | 2.97 | 8 | CC1(C)NC(=O)c2c(Cl)cc(Nc3cc(N)ncn3)c(=O)n21 [Cpd. No. 88, 6-[(6-aminopyrimidin-4-yl)amino]-8-chloro-3,3-dimethyl-2H-imidazo[1,5-a]pyridine-1,5-dione] |  | AUC(0-inf) [1, 4]: 273 ng·h/mL; half-life [1, 4]: 1.3 h; Vd [1, 4]: 3.03 L/kg; Cl_obs [1, 4]: 61 mL/min/kg
75.7 | 17.5 | 1 | 3.49 | 8 | CC1(C2CCCC2)NC(=O)c2ccc(Nc3cc(NC(=O)C4CC4)ncn3)c(=O)n21 (stereo not shown) [Cpd. No. 23, N-[6-[(3-cyclopentyl-3-methyl-1,5-dioxo-2H-imidazo[1,5-a]pyridin-6-yl)amino]pyrimidin-4-yl]cyclopropanecarboxamide] |  | 
921 | 192 | 2 | 1.91 | 8 | CC1(C(F)(F)F)NC(=O)c2ccc(Nc3cc(NC(=O)C4CC4)ncn3)c(=O)n21 (stereo not shown) [Cpd. No. 24, N-[6-[[3-methyl-1,5-dioxo-3-(trifluoromethyl)-2H-imidazo[1,5-a]pyridin-6-yl]amino]pyrimidin-4-yl]cyclopropanecarboxamide] |  | 
132 | 21.8 | 2 | 6.75 | 8 | CC1(C)NC(=O)c2c(Cl)cc(Nc3cc(NC(=O)C4CC4)ncn3)c(=O)n21 [Cpd. No. 43, N-[6-[(8-chloro-3,3-dimethyl-1,5-dioxo-2H-imidazo[1,5-a]pyridin-6-yl)amino]pyrimidin-4-yl]cyclopropanecarboxamide] |  | 
1620 | 371 | 2 | 1.93 | 8 | CC1(CC(F)(F)F)NC(=O)c2ccc(Nc3cc(NC(=O)C4CC4)ncn3)c(=O)n21 (stereo not shown) [Cpd. No. 22, N-(6-((3-methyl-1,5-dioxo-3-(2,2,2-trifluoroethyl)-1,2,3,5-tetrahydroimidazo[1,5-a]pyridin-6-yl)amino)pyrimidin-4-yl)cyclopropanecarboxamide] |  | 
31300 | 3160 |  | 7.38 | 24 | CC1(c2cccc(Cl)c2)NC(=O)c2c(Cl)cc(Nc3cc(NC(=O)C4CC4)ncn3)c(=O)n21 (stereo not shown) [Cpd. No. 51, N-[6-[[8-chloro-3-(3-chlorophenyl)-3-methyl-1,5-dioxo-2H-imidazo[1,5-a]pyridin-6-yl]amino]pyrimidin-4-yl]cyclopropanecarboxamide] |  | AUC(0-inf) [1, 5]: 2500 ng·h/mL; half-life [1, 5]: 5.78 h; Vd [1, 5]: 2.79 L/kg; Cl_obs [1, 5]: 6.66 mL/min/kg; AUClast ([2]; female): 35800 ng·h/mL; T½ ([2]; female): 8.36 h
